Holding throughout (type): cell-based
The subject of assay [1] is HN31 (head and neck cancer) cell line. In words: Cell growth inhibition experiment (SRB), HN31. The settings on record: Homo sapiens, incubated for 96 hours, read-out: IC50 (μM) of cancer cell lines HN31. The protocol:
(§1) The cell lines below were used in order to confirm the efficacy of the compounds synthesized in Examples 1 to 27. Human PANC-1 (pancreatic cancer) and MDA-MB-231 (breast cancer) cell lines were obtained from American Type Culture Collection (ATCC; Manassas, Va.); and HN31 (head and neck cancer) and UMRC2 (kidney cancer) cell lines were secured from the United States National Institutes of Health (Bethesda, Md.). The MDA-MB-231, UMRC2, HN31, and PANC-1 cell lines were cultured in Dulbecco modified Eagle medium (DMEM) containing FBS (10%), HEPES (10 mM), penicillin (100 U/mL), and streptomycin (100 μg/mL). All cell lines were cultured in an incubator (37° C., 5% CO2).
(§2) The 4-(aryl)-N-(2-alkoxythieno[3,2-b]pyrazin-3-yl)-piperazin-1-carboxamide derivative compounds synthesized according to Examples 1 to 27 of the present invention were treated with various human tissue-derived cancer cell lines cultured according to Experimental Example 1, and thus the inhibitory effect of the growth of human cancer cells was confirmed. The cell growth inhibition experiment was conducted using sulforhodamine B (SRB) technique (Skehan et al., J. National Cancer Institute, 1990, 82: 1107-1112). Specifically, each cell line was seeded in a 96-well plate at a density of 2 to 3×10^3 cells/well, cultured overnight, and then treated with the 4-(aryl)-N-(2-alkoxythieno[3,2-b]pyrazin-3-yl)-piperazin-1-carboxamide derivative compounds of the present invention. The experiment was repeated 3 times for each compound. Cells treated with each compound were additionally incubated for 96 hours, fixed with 10% trichloroacetic acid (TCA), and then left at 4° C. for 1 hour. The resultant was washed 3 times with distilled water. Thereafter, each cell was treated with 0.4% sulforhodamine B dissolved in 1% acetic acid, stained for 30 minutes, and then washed 4 times with 1% acetic acid. The resultant was dried in the air. After shaking the resultant in Tris solution (10 mM) for 5 minutes, the absorbance was measured at 530 nm using a Benchmark Plus Microplate reader (Bio-Rad Laboratories, Hercules, Calif.).
(§3) In order to convert the OD530 value to the number of viable cells per each well, the measured OD530 value was compared to the standard OD530-vs.-cell number curve of each cell line. The percent survival was calculated using the following formula: % survival=Nlive cells(test)/Nlive cells(control)×100
(§4) IC50 values were calculated by nonlinear regression analysis.

For assay [2], the system named is PANC-1 (pancreatic cancer) cell line. In words: Cell growth inhibition experiment (SRB), PANC-1. The settings on record: Homo sapiens, incubated for 96 hours, read-out: IC50 (μM) of cancer cell lines PANC-1. The protocol: as §1, §2, §3, §4
For the next assay, the system named is HEK293. In words: Cell growth inhibition experiment (SRB), HEK293. The settings on record: Homo sapiens, incubated for 96 hours, read-out: IC50 (μM) of cancer cell lines HEK293. On the procedure: as §2, §3, §4
For the next assay, the system named is HUVEC. In words: Cell growth inhibition experiment (SRB), HUVEC. The settings on record: Homo sapiens, incubated for 96 hours, read-out: IC50 (μM) of cancer cell lines HUVEC. The protocol:
as §2, §3, §4

In assay [3] the test system is MDA-MB-231 (breast cancer) cell line. In words: Cell growth inhibition experiment (SRB), MDA-MB-231. The settings on record: Homo sapiens, incubated for 96 hours, read-out: IC50 (μM) of cancer cell lines MDA-MB-231. The protocol:
as §1, §2, §3, §4

For assay [4], the system named is UMRC2 (kidney cancer) cell line. In words: Cell growth inhibition experiment (SRB), UMRC2. The conditions noted are these: Homo sapiens, incubated for 96 hours, read-out: IC50 (μM) of cancer cell lines UMRC2. The protocol: as §1, §2, §3, §4
The next assay has as its system A549. In words: Cell growth inhibition experiment (SRB), A549. The conditions noted are these: Homo sapiens, incubated for 96 hours, read-out: IC50 (μM) of cancer cell lines A549. The protocol:
as §2, §3, §4

The next assay has as its system HT29. The assay is described as follows: Cell growth inhibition experiment (SRB), HT29. The settings on record: Homo sapiens, HT-29, incubated for 96 hours, read-out: IC50 (μM) of cancer cell lines HT29. The protocol: as §2, §3, §4
In another assay the test system is SK-OV-3. In words: Cell growth inhibition experiment (SRB), SK-OV-3. The conditions noted are these: Homo sapiens, incubated for 96 hours, read-out: IC50 (μM) of cancer cell lines SK-OV-3. The protocol:
as §2, §3, §4

In general, IC50 refers to the concentration needed to halve the response being measured.

As for `CCOc1nc2ccsc2nc1NC(=O)N1CCN(c2cc(C)cc(C)c2)CC1` [Example 14, 4-(3,5-dimethylphenyl)-N-(2-ethoxythieno[3,2-b]pyrazin-3-yl)piperazin-1-carboxamide], the half-maximal inhibitory concentration (IC50) in assay [1] is 0.65 µM; in assay [2], less than 2.5 µM; in the assay with HEK293, less than 2.5 µM; in the assay with HUVEC, less than 2.5 µM; in [3] it was 0.34 µM; in assay [4], 0.57 µM. Besides, the IC50 with A549, with HT29 and in the assay on SK-OV-3 was less than 2.5 µM in each case.

As to `CCOc1nc2ccsc2nc1NC(=O)N1CCN(c2cc(F)cc(F)c2)CC1` [Example 15, 4-(3,5-difluorophenyl)-N-(2-ethoxythieno[3,2-b]pyrazin-3-yl)piperazin-1-carboxamide], the IC50 in assay [1] is 0.78 µM; in assay [2], 1.12 µM; in the assay with HEK293 it was less than 2.5 µM; in the assay with HUVEC it was less than 2.5 µM; in [3], 0.25 µM; in assay [4], 0.25 µM. Moreover, the IC50 in the assay with A549, in the assay with HT29 and with SK-OV-3 was less than 2.5 µM throughout.

For `COc1cc(OC)cc(N2CCN(C(=O)Nc3nc4sccc4nc3OC(C)C)CC2)c1` [Example 16, 4-(3,5-dimethoxyphenyl)-N-(2-isopropoxythieno[3,2-b]pyrazin-3-yl)piperazin-1-carboxamide], the IC50 in [1] is less than 2.5 µM; in [2], less than 2.5 µM; in the assay with HEK293, less than 2.5 µM; in the assay with HUVEC, less than 2.5 µM; in [3], 2.12 µM; in assay [4] it was less than 2.5 µM. Also, the half-maximal inhibitory concentration (IC50) with A549, in the assay on HT29 and with SK-OV-3 was less than 2.5 µM in each case.

For `Cc1cc(C)cc(N2CCN(C(=O)Nc3nc4sccc4nc3OC(C)C)CC2)c1` [Example 17, 4-(3,5-dimethylphenyl)-N-(2-isopropoxythieno[3,2-b]pyrazin-3-yl)piperazin-1-carboxamide], the IC50 (in assay [1]; in assay [2]; with HEK293; with HUVEC; in assay [3]; in [4]) was less than 2.5 µM in each case. Further, the IC50 in the assay with A549, in the assay with HT29 and with SK-OV-3 was less than 2.5 µM each time.

Turning to `CC(C)Oc1nc2ccsc2nc1NC(=O)N1CCN(c2cc(F)cc(F)c2)CC1` [Example 18, 4-(3,5-difluorophenyl)-N-(2-isopropoxythieno[3,2-b]pyrazin-3-yl)piperazin-1-carboxamide], the half-maximal inhibitory concentration (IC50) (in assay [1]; in assay [2]; in the assay with HEK293; in the assay with HUVEC; in [3]; in assay [4]) was less than 2.5 µM in each case. The half-maximal inhibitory concentration (IC50) in the assay with A549, with HT29 and in the assay with SK-OV-3 was less than 2.5 µM each time.

Take `COc1nc2ccsc2nc1NC(=O)N1CCN(c2cc(C)cc(OC(F)(F)F)c2)CC1` [Example 19, N-(2-methoxythieno[3,2-b]pyrazin-3-yl)-4-(3-methyl-5-(trifluoromethoxy)phenyl)piperazin-1-carboxamide]: the half-maximal inhibitory concentration (IC50) in [1] was 1.12 µM; in [2], 0.58 µM; with HEK293, 1.23 µM; in the assay on HUVEC, 0.68 µM; in assay [3], less than 2.5 µM; in [4], 0.25 µM. The IC50 was 1.52 µM in the assay with A549, 0.71 µM in the assay on HT29 and less than 2.5 µM in the assay with SK-OV-3.

Regarding `COc1nc2ccsc2nc1NC(=O)N1CCN(c2cc(OC(F)(F)F)cc(C(F)(F)F)c2)CC1` [Example 20, N-(2-methoxythieno[3,2-b]pyrazin-3-yl)-4-(3-(trifluoromethoxy)-5-(trifluoromethyl)phenyl)piperazin-1-carboxamide], the IC50 in [1] is 0.36 µM; in assay [2], 0.36 µM; in the assay with HEK293, 0.12 µM; with HUVEC, 0.21 µM; in assay [3] it was 0.25 µM; in assay [4] it was less than 2.5 µM. The IC50 in the assay with A549 came to 0.15 µM; with HT29, 0.62 µM; with SK-OV-3, 0.22 µM.

`COc1cc(C)cc(N2CCN(C(=O)Nc3nc4sccc4nc3OC)CC2)c1` [Example 21, 4-(3-methoxy-5-methylphenyl)-N-(2-methoxythieno[3,2-b]pyrazin-3-yl)piperazin-1-carboxamide]: the IC50 in [1] is less than 2.5 µM; in [2], 2.12 µM; in the assay with HEK293 it was 1.25 µM; in the assay on HUVEC, less than 2.5 µM; in assay [3], 2.21 µM; in [4], 1.74 µM. For the same molecule, the values for the half-maximal inhibitory concentration (IC50) with A549, with HT29 and in the assay with SK-OV-3 were 1.63 µM, 1.85 µM and 1.85 µM, respectively.

As to `COc1cc(F)cc(N2CCN(C(=O)Nc3nc4sccc4nc3OC)CC2)c1` [Example 22, 4-(3-fluoro-5-methoxyphenyl)-N-(2-methoxythieno[3,2-b]pyrazin-3-yl)piperazin-1-carboxamide], the IC50 in assay [1] came to 0.45 µM; in [2], 0.63 µM; with HEK293, 1.12 µM; in the assay with HUVEC it was 1.36 µM; in assay [3], 0.52 µM; in [4], 0.21 µM. The results for the IC50 in the assay with A549, in the assay on HT29 and in the assay with SK-OV-3 were 2.21 µM, 1.12 µM and 1.36 µM, respectively.

As for `COc1nc2ccsc2nc1NC(=O)N1CCN(c2cc(C)cc(F)c2)CC1` [Example 23, 4-(3-fluoro-5-methylphenyl)-N-(2-methoxythieno[3,2-b]pyrazin-3-yl)piperazin-1-carboxamide], the 50% inhibitory concentration (IC50) is 0.28 µM in [1]; 0.58 µM in [2]; 0.35 µM with HEK293; 0.45 µM with HUVEC; 0.36 µM in [3]; less than 2.5 µM in [4]. The concentration for half-maximal inhibition (IC50) was 0.63 µM in the assay on A549, 0.28 µM in the assay on HT29 and 0.36 µM in the assay on SK-OV-3.

Regarding `COc1nc2ccsc2nc1NC(=O)N1CCN(c2cccc(OC(F)(F)F)c2)CC1` [Example 24, N-(2-methoxythieno[3,2-b]pyrazin-3-yl)-4-(3-(trifluoromethoxy)phenyl)piperazin-1-carboxamide], the IC50 in assay [1] was less than 2.5 µM; in assay [2] it was 0.44 µM; with HEK293 it was 0.25 µM; in the assay on HUVEC, less than 2.5 µM; in assay [3] it was 0.12 µM; in assay [4], 0.36 µM. Besides, the values for the half-inhibitory concentration (IC50) in the assay on A549, in the assay with HT29 and in the assay with SK-OV-3 were 0.87 µM, 0.36 µM and 0.12 µM, respectively.

Turning to `COc1cc(OC(F)(F)F)cc(N2CCN(C(=O)Nc3nc4sccc4nc3OC)CC2)c1` [Example 25, 4-(3-methoxy-5-(trifluoromethoxy)phenyl)-N-(2-methoxythieno[3,2-b]pyrazin-3-yl)piperazin-1-carboxamide], the IC50 was 0.17 µM in assay [1]; 0.08 µM in assay [2]; 0.36 µM with HEK293; 0.13 µM in the assay with HUVEC; 0.15 µM in assay [3]; less than 2.5 µM in assay [4]. The IC50 with A549 amounted to 0.22 µM; in the assay on HT29, 0.25 µM; with SK-OV-3 it was 0.63 µM.

(Values after patent US10059721B2, “Substituted thieno[3,2-b]pyrazines for inhibiting cancer cell proliferation and inducing cancer cell apoptosis” (DONGGUK UNIVERSITY INDUSTRY-ACADEMIC COOPERATION FOUNDATION, priority 2014, dated 2018).)
